How the values were obtained:
[1] = biological target: T1, human TRPV1 receptor (hTRPV1) (Homo sapiens (Human), UniProt Q8NER1); assay: Acid activation assay (pH 5.0, FLIPR intracellular Ca2+); format: cell-based; conditions: 37.5 μM compound; percentage of the maximal pH 5.0-induced response remaining; read-out: hTRPV1 H+ (max % remain)
Procedure: Dulbecco's modified Eagle's medium (DMEM) with 4.5 mg/mL D-glucose, fetal bovine serum, L-glutamine, and 2-morpholinoethanesulfonic acid (MES) were purchased from Sigma-Aldrich Co. (St. Louis, Mo.). Dulbecco's phosphate-buffered saline (DPBS) with Ca^2+, Mg^2+, and 1 mg/mL D-glucose (pH 7.4), Geneticin®, 0.25% trypsin-1 mM EDTA, and penicillin-streptomycin were purchased from Invitrogen Corp. (Carlsbad, Calif.). The FLIPR® Calcium 4 assay kit was purchased from Molecular Devices (Sunnyvale, Calif.).
(§1) The cDNAs for the human TRPV1 receptor (hTRPV1) were isolated by reverse transcriptase-polymerase chain reaction (RT-PCR) from human small intestine poly A+ RNA supplied by Clontech (Palo Alto, Calif.) using primers designed surrounding the initiation and termination codons identical to the published sequences (Hayes et al. Pain 2000, 88, 205-215). The resulting cDNA PCR products were subcloned into pCIneo mammalian expression vector (Promega) and fully sequenced using fluorescent dye-terminator reagents (Prism, Perkin-Elmer Applied Biosystems Division) and a Perkin-Elmer Applied Biosystems Model 373 DNA sequencer or Model 310 genetic analyzer. Expression plasmids encoding the hTRPV1 cDNA were transfected individually into 1321N1 human astrocytoma cells using Lipofectamine®. Forty-eight hours after transfection, the neomycin-resistant cells were selected with growth medium containing 800 μg/mL Geneticin (Gibco BRL). Surviving individual colonies were isolated and screened for TRPV1 receptor activity. Cells expressing recombinant homomeric TRPV1 receptors were maintained at 37° C. in DMEM containing 4 mM L-glutamine, 300 μg/mL G418 (Cal-biochem) and 10% fetal bovine serum under a humidified 5% CO2 atmosphere.
The functional activity of compounds at the TRPV1 receptor was determined by measurement of intracellular Ca^2+ levels ([Ca^2+]i) using the Fluorescence Imaging Plate Reader (FLIPR)^TETRA®. All compounds were tested over a 12-point one-half-log concentration range. Compound stocks, 10 mM, were prepared in DMSO, and diluted serially across a 384-well plate using a Bravo BenchCel workstation (Agilent Technologies, Santa Clara, Calif.).
On the day of the experiment growth medium was removed, and the no-wash FLIPR®Calcium-4 dye (λEX=470-495 nm, λEM=515-575 nm) was added to each well using the Multidrop® dispenser. Cells were incubated for 90-120 minutes in the dark at 25° C. Test compounds were dissolved in DMSO, and plates were prepared using an Agilent Bravo workstation (Agilent Technologies Inc., Santa Clara, Calif.). Compounds were added to the cells 3 minutes prior to the addition of a pH 5.0 solution. Reagents were delivered at a rate of 40 μL/sec, and the final assay volume was 80 μL. Acidic pH solutions were prepared by titration of DPBS/MES with 1 N HCl. The intensity of the fluorescence was captured and digitally transferred to an interfaced PC.

[2] = biological target: T1, human TRPV1 receptor (hTRPV1); assay: Capsaicin activation assay (FLIPR intracellular Ca2+); format: cell-based; conditions: inhibition of capsaicin-induced intracellular Ca2+ increase; compounds added 3 minutes prior to capsaicin; read-out: hTRPV1 cap. IC50
Procedure: Dulbecco's modified Eagle medium (D-MEM) (with 4.5 mg/mL glucose) and fetal bovine serum were obtained from Hyclone Laboratories, Inc. (Logan, Utah). Dulbecco's phosphate-buffered saline (D-PBS) (with 1 mg/mL glucose and 3.6 mg/l Na pyruvate, without phenol red), L-glutamine, hygromycin B, and Lipofectamine® were obtained from Life Technologies (Grand Island, N.Y.). G418 sulfate was obtained from Calbiochem-Novabiochem Corp. (San Diego, Calif.). Capsaicin (8-methyl-N-vanillyl-6-nonenamide) was obtained from Sigma-Aldrich, Co. (St. Louis, Mo.). Fluo-4 AM (N-[4-[6-[(acetyloxy)methoxy]-2,7-difluoro-3-oxo-3H-xanthen-9-yl]-2-[2-[2-[bis[2-[(acetyloxy)methoxy]-2-oxyethyl]amino]-5-methylphenoxy]ethoxy]phenyl]-N-[2-[(acetyloxy)methoxy]-2-oxyethyl]-glycine, (acetyloxy)methyl ester) was purchased from Molecular Probes (Eugene, Oreg.).
as §1, with “D-MEM” for “DMEM”
The functional activity of compounds at the TRPV1 receptor was determined by measurement of intracellular Ca^2+ levels ([Ca^2]i) using the Fluorescence Imaging Plate Reader (FLIPR)^TETRA®. All compounds were tested over a 12-point one-third-log concentration range. Compound stocks, 10 mM, were prepared in DMSO, and diluted serially across a 384-well plate using a Bravo BenchCel workstation (Agilent Technologies, Santa Clara, Calif.). A stock concentration of capsaicin (10 mM) was made in DMSO, and diluted in D-PBS to a final concentration of 200 nM (4×). On the day prior to the experiment, recombinant HEK293 cells that stably express either human or rat TRPV1 (hTRPV1-3) were removed from tissue culture flasks and plated in growth medium into black-walled clear-bottom 384-well Biocoat™ poly-D-lysine assay plates (BD Biosciences, Bedford, Mass.) using a Multidrop® dispenser (ThermoScientific, Waltham, Mass.). On the day of the experiment, growth medium was removed, and the no-wash FLIPR® Calcium-4 dye (λEX=470-495 nm, λEM=515-575 nm; Molecular Devices, Sunnyvale, Calif.) was added to each well using the Multidrop® dispenser. Cells were incubated for 90-120 minutes in the dark at room temperature. Test compounds were added to the cells 3 minutes prior to the addition of 200 nM capsaicin (4×), and the final assay volume was 80 μL. Fluorescence readings were made at 1 to 5 second intervals over the course of the experimental run. The peak increase in relative fluorescence units (minus baseline) was calculated, and expressed as a percentage of the 50 nM capsaicin (control) response. Curve-fits of the data were solved using a four-parameter logistic Hill equation in GraphPad Prism® (GraphPad Software, Inc., San Diego, Calif.), and IC50 values (concentration of the test compounds that inhibits 50% of the intracellular Ca^2+ concentration increase induced by capasin) were calculated.

T1 sequence (Q8NER1 whole entry): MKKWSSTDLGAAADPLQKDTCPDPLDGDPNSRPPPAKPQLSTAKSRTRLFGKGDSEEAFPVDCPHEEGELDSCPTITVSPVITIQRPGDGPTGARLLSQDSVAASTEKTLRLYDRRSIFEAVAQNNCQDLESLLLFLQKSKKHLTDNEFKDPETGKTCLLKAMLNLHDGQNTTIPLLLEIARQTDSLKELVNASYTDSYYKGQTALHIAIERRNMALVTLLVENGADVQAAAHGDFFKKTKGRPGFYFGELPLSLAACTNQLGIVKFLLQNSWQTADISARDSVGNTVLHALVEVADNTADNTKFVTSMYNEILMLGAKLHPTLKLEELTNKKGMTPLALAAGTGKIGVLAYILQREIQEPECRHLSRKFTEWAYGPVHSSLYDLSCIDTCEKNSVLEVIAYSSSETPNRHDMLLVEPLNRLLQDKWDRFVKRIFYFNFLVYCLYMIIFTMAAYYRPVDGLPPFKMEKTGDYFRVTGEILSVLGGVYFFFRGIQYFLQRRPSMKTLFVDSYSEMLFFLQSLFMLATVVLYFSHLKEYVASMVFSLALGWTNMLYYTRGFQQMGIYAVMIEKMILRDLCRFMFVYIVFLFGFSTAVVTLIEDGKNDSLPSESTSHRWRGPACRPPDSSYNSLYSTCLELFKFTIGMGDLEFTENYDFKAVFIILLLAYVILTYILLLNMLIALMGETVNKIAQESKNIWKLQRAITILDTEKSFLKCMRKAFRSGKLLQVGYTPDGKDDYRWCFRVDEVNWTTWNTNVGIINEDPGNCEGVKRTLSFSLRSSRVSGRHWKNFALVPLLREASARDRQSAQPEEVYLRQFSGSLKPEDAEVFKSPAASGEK

Row | SMILES | remaining activity at 37.5 µM [1] | IC50 [2]
1 | CS(=O)(=O)Nc1ccc(CNC(=O)N[C@@H]2CCc3cc(Cl)ccc32)cc1F [Example 3, N-{4-[({[(1R)-5-chloro-2,3-dihydro-1H-inden-1-yl]carbamoyl}amino)methyl]-2-fluorophenyl}methanesulfonamide] | 86% | 1810 nM
2 | CS(=O)(=O)Nc1ccc(CNC(=O)N[C@@H]2CCc3cc(F)ccc32)cc1F [Example 4, N-{2-fluoro-4-[({[(1R)-5-fluoro-2,3-dihydro-1H-inden-1-yl]carbamoyl}amino)methyl]phenyl}methanesulfonamide] | 91% | 16500 nM
3 | CS(=O)(=O)Nc1ccc(CNC(=O)N[C@@H]2CC(CF)(CF)Oc3cc(Cl)ccc32)cc1F [Example 6, N-{4-[({[(4R)-7-chloro-2,2-bis(fluoromethyl)-3,4-dihydro-2H-chromen-4-yl]carbamoyl}amino)methyl]-2-fluorophenyl}methanesulfonamide] | 73% | 2900 nM
4 | CS(=O)(=O)Nc1ccc(CNC(=O)N[C@@H]2CCOc3ccccc32)cc1F [Example 12, N-[4-({[(4R)-3,4-dihydro-2H-chromen-4-ylcarbamoyl]amino}methyl)-2-fluorophenyl]methanesulfonamide] | 87% | > 37500 nM
5 | CS(=O)(=O)Nc1ccc(CNC(=O)N[C@@H]2CC(CF)(CF)Oc3c(F)cc(F)cc32)cc1F [Example 16, N-{4-[({[(4R)-6,8-difluoro-2,2-bis(fluoromethyl)-3,4-dihydro-2H-chromen-4-yl]carbamoyl}amino)methyl]-2-fluorophenyl}methanesulfonamide] | 79% | 22800 nM
6 | CS(=O)(=O)Nc1ccc(CNC(=O)N[C@@H]2CC3(CCC3)Oc3ccc(F)cc32)cc1F [Example 17, N-{2-fluoro-4-[({[(4R)-6-fluoro-3,4-dihydrospiro[chromene-2,1′-cyclobutan]-4-yl]carbamoyl}amino)methyl]phenyl}methanesulfonamide] | 69% | 3030 nM
7 | CCC1(CC)C[C@@H](NC(=O)NCc2ccc(NS(C)(=O)=O)c(F)c2)c2cc(F)ccc2O1 [Example 18, N-{4-[({[(4R)-2,2-diethyl-6-fluoro-3,4-dihydro-2H-chromen-4-yl]carbamoyl}amino)methyl]-2-fluorophenyl}methanesulfonamide] | 56% | 2150 nM

Now those with a lower IC50 [2], led by results:

Row | remaining activity at 37.5 µM [1] | IC50 [2] | SMILES
8 | 22% | 104 nM | CC(C)(C)c1ccc2c(c1)CC[C@H]2NC(=O)NCc1ccc(NS(C)(=O)=O)c(F)c1 [Example 1, N-{4-[({[(1R)-5-tert-butyl-2,3-dihydro-1H-inden-1-yl]carbamoyl}amino)methyl]-2-fluorophenyl}methanesulfonamide]
9 | 88% | 325 nM | CS(=O)(=O)Nc1ccc(CNC(=O)N[C@@H]2CCc3cc(C(F)(F)F)ccc32)cc1F [Example 5, N-{2-fluoro-4-[({[(1R)-5-(trifluoromethyl)-2,3-dihydro-1H-inden-1-yl]carbamoyl}amino)methyl]phenyl}methanesulfonamide]
10 | 18% | 747 nM | CC1(C)C[C@@H](NC(=O)NCc2ccc(NS(C)(=O)=O)c(F)c2)c2ccc(F)cc2O1 [Example 7, N-{2-fluoro-4-[({[(4R)-7-fluoro-2,2-dimethyl-3,4-dihydro-2H-chromen-4-yl]carbamoyl}amino)methyl]phenyl}methanesulfonamide]
11 | 24% | 330 nM | CCC1(CC)C[C@@H](NC(=O)NCc2ccc(NS(C)(=O)=O)c(F)c2)c2ccc(Cl)c(Cl)c2O1 [Example 8, N-{4-[({[(4R)-7,8-dichloro-2,2-diethyl-3,4-dihydro-2H-chromen-4-yl]carbamoyl}amino)methyl]-2-fluorophenyl}methanesulfonamide]
12 | 70% | 109 nM | CC1(C)C[C@@H](NC(=O)NCc2ccc(NS(C)(=O)=O)c(F)c2)c2ccc(C(F)(F)F)cc2O1 [Example 9, N-{4-[({[(4R)-2,2-dimethyl-7-(trifluoromethyl)-3,4-dihydro-2H-chromen-4-yl]carbamoyl}amino)methyl]-2-fluorophenyl}methanesulfonamide]
13 | 27% | 418 nM | CCC1(CC)C[C@@H](NC(=O)NCc2ccc(NS(C)(=O)=O)c(F)c2)c2cccc(F)c2O1 [Example 13, N-{4-[({[(4R)-2,2-diethyl-8-fluoro-3,4-dihydro-2H-chromen-4-yl]carbamoyl}amino)methyl]-2-fluorophenyl}methanesulfonamide]
14 | 27% | 209 nM | CCC1(CC)C[C@@H](NC(=O)NCc2ccc(NS(C)(=O)=O)c(F)c2)c2ccc(Cl)cc2O1 [Example 14, N-{4-[({[(4R)-7-chloro-2,2-diethyl-3,4-dihydro-2H-chromen-4-yl]carbamoyl}amino)methyl]-2-fluorophenyl}methanesulfonamide]
15 | 85% | 863 nM | CS(=O)(=O)Nc1ccc(CNC(=O)N[C@@H]2CC(CF)(CF)Oc3cc(OC(F)(F)F)ccc32)cc1F [Example 15, N-{4-[({[(4R)-2,2-bis(fluoromethyl)-7-(trifluoromethoxy)-3,4-dihydro-2H-chromen-4-yl]carbamoyl}amino)methyl]-2-fluorophenyl}methanesulfonamide]

From patent publication US8796328B2, “TRPV1 antagonists” (AbbVie Inc., priority 2012, dated 2014)
